Experimental data from PMC6691788, “Design and synthesis of phthalazine-based compounds as potent anticancer agents with potential antiangiogenic activity via VEGFR-2 inhibition” (Journal of Enzyme Inhibition and Medicinal Chemistry, 2019).

Tests used:
Experiment in all cases: NCI 60 cell panel SRB screen
CCRF-CEM = type: cell-based, human; settings: Homo sapiens, single dose 10 μM, read-out: percent cell growth promotion
SW-620 = type: cell-based; settings: Homo sapiens; SW-620, single dose 10 μM; read-out: percent cell growth promotion
RPMI-8226 = type: cell-based; settings: Homo sapiens; RPMI-8226, single dose 10 μM; read-out: percent cell growth promotion
OVCAR-5 = type: cell-based; settings: Homo sapiens; OVCAR-5, single dose 10 μM; read-out: percent cell growth promotion
SNB-19 = type: cell-based; settings: Homo sapiens; SNB-19, single dose 10 μM; read-out: percent cell growth promotion
HCC-2998 = type: cell-based; settings: Homo sapiens; HCC-2998, single dose 10 μM; read-out: percent cell growth promotion
NCI-H226 = type: cell-based; settings: Homo sapiens; NCI-H226, single dose 10 μM; read-out: percent cell growth promotion
HOP-92 = type: cell-based; settings: Homo sapiens; HOP-92, single dose 10 μM; read-out: percent cell growth promotion
M14 = type: cell-based; settings: Homo sapiens, M14, read-out: percent cell growth promotion
A549/ATCC = type: cell-based; settings: Homo sapiens, single dose 10 μM, read-out: percent cell growth promotion
OVCAR-8 = type: cell-based; settings: Homo sapiens; OVCAR-8, single dose 10 μM; read-out: percent cell growth promotion
SK-MEL-5 = type: cell-based; settings: Homo sapiens, SK-MEL-5, read-out: percent cell growth promotion
SN12C = type: cell-based; settings: Homo sapiens, single dose 10 μM, read-out: percent cell growth promotion
U251 = type: cell-based; settings: Homo sapiens, U-251; U251, single dose 10 μM; read-out: percent cell growth promotion
HCT-116 = type: cell-based; settings: Homo sapiens; HCT-116, single dose 10 μM; read-out: percent cell growth promotion
SK-MEL-28 = type: cell-based; settings: Homo sapiens, SK-MEL-28, read-out: percent cell growth promotion
NCI/ADR-RES = type: cell-based; settings: Homo sapiens, single dose 10 μM, read-out: percent cell growth promotion
SR = type: cell-based; settings: Homo sapiens, single dose 10 μM, read-out: percent cell growth promotion
NCI-H23 = type: cell-based; settings: Homo sapiens; NCI-H23, single dose 10 μM; read-out: percent cell growth promotion
ACHN = type: cell-based; settings: Homo sapiens, single dose 10 μM, read-out: percent cell growth promotion
RXF 393 = type: cell-based; settings: Homo sapiens; RXF 393, single dose 10 μM; read-out: percent cell growth promotion
KM12 = type: cell-based; settings: Homo sapiens; KM12, single dose 10 μM; read-out: percent cell growth promotion
TK-10 = type: cell-based, human; settings: Homo sapiens; TK-10, single dose 10 μM; read-out: percent cell growth promotion
MALME-3M = type: cell-based; settings: Homo sapiens, Malme-3M, read-out: percent cell growth promotion
SNB-75 = type: cell-based; settings: Homo sapiens; SNB-75, single dose 10 μM; read-out: percent cell growth promotion
SK-OV-3 = type: cell-based; settings: Homo sapiens; SK-OV-3, single dose 10 μM; read-out: percent cell growth promotion
NCI-H460 = type: cell-based; settings: Homo sapiens; NCI-H460, single dose 10 μM; read-out: percent cell growth promotion

SMILES: Cc1nnc(Oc2ccc(NC(=O)Nc3ccc(Cl)cc3)cc2)c2ccccc12 [Compound 7e, 1–(4-Chlorophenyl)-3–(4-(4-methylphthalazin-1-yloxy)phenyl)urea]
- activity at 10 µM (CCRF-CEM): 40.2%
- activity at 10 µM (SW-620): 95%
- activity at 10 µM (RPMI-8226): 55.6%
- activity at 10 µM (OVCAR-5): 119%
- activity at 10 µM (SNB-19): 84.1%
- activity at 10 µM (HCC-2998): 110%
- activity at 10 µM (NCI-H226): 79.1%
- activity at 10 µM (HOP-92): 93.5%
- activity at 10 µM (M14): 79.4%
- activity at 10 µM (A549/ATCC): 61.5%
- activity at 10 µM (OVCAR-8): 76%
- activity at 10 µM (SK-MEL-5): 70.2%
- activity at 10 µM (SN12C): 79.1%
- activity at 10 µM (U251): 60%
- activity at 10 µM (HCT-116): 72.5%
- activity at 10 µM (SK-MEL-28): 88.3%
- activity at 10 µM (NCI/ADR-RES): 72.8%
- activity at 10 µM (SR): 38.5%
- activity at 10 µM (NCI-H23): 84.9%
- activity at 10 µM (ACHN): 80.7%
- activity at 10 µM (RXF 393): 82%
- activity at 10 µM (KM12): 57.7%
- activity at 10 µM (TK-10): 84.8%
- activity at 10 µM (MALME-3M): 92.6%
- activity at 10 µM (SNB-75): 47.3%
- activity at 10 µM (SK-OV-3): 69.5%
- activity at 10 µM (NCI-H460): 78.2%
